Measurements from patent US10577308B2, “Sodium channel modulators” (The Florey Institute of Neuroscience and Mental Health, priority 2015, dated 2020).
Like-named read-outs stand apart in the source and are kept apart here.

Columns and labels:
hNav1.6 = hNav1.6 (Homo sapiens (Human), UniProt Q9UQD0); assay: Automated patch clamp (IonWorks Quattro) block of hNav1.6 channels in CHO cells; format: cell-based
Excerpt: (§1) FIG. 1 depicts the voltage sequence used to measure inhibitory activity of compounds as described in Example 3. An automated patch clamp screening assay was used to measure the inhibitory effect (potency) of compounds in three conformational states of the sodium channel: (1) the tonic state (TP1); (2) the frequency-dependent (10 Hz) state (TP11) and (3) the inactivated state (TP12).
(§2) Test Protocol for Determining the Potency of Compounds on Nav1.2 and Nav1.6 Subtypes of Voltage-Gated Sodium Ion Channels Expressed in Mammalian Cells
(§3) Cell culture procedures: Chinese hamster ovary (CHO) cells were stably transfected with the cDNA sequence of either the human SCN2A or SCN8A genes to create hNav1.2 or hNav1.6 cells respectively. The cell lines were cultured in Ham's F-12 medium supplemented with 10% fetal bovine serum and antibiotics in a tissue incubator at 37° C. under a humidified air/CO2 mixture (95/5 v/v). On the day of the experiment, cells were washed twice with Hank's balanced salt solution, treated with trypsin, and resuspended in fresh culture media at a density of 4−6×10^6 cells in 20 ml. Immediately before placing in the IonWorks Quattro instrument, cells were washed in Hank's balanced salt solution to remove culture medium and re-suspended in 3 ml of Hank's balanced salt solution.
(§4) Automated patch clamp recordings of cells using the IonWorks Quattro Instrument: The assay used a 384 microwell plate, which enabled 20 compounds to be studied at four different concentrations in quadruplicate as well as allowing a vehicle control group and a positive control group using mexiletine at 8 different concentrations. Cells were added to the wells of the Population Patch Clamp planar electrode using a 48-channel pipettor in a volume of 6 μL, per well. After 5 minutes incubation at ambient temperature with compounds or vehicle, membrane currents were recorded using the patch clamp amplifier. The pulse pattern was repeated twice, before and after compound addition and peak current amplitudes were measured at three test pulses, TP1, TP11 and TP12 to measure Tonic Block, 10 Hz Frequency-dependent Block and Inactivation State Block, respectively.
(§5) Data analysis: Data acquisition and analyses were carried out using the IonWorks Quattro system operation software which uses an algorithm to correct data for leak currents. Concentration-response curves were fitted by non-linear least squares regression allowing calculation of an IC50 value (μM), being the concentration of the compound producing half-maximal inhibition.

hNav1.2 = hNav1.2 (Homo sapiens (Human), UniProt Q99250); assay: Automated patch clamp (IonWorks Quattro) block of hNav1.2 channels in CHO cells; format: cell-based
hNav1.2, sequence (Q99250 whole entry): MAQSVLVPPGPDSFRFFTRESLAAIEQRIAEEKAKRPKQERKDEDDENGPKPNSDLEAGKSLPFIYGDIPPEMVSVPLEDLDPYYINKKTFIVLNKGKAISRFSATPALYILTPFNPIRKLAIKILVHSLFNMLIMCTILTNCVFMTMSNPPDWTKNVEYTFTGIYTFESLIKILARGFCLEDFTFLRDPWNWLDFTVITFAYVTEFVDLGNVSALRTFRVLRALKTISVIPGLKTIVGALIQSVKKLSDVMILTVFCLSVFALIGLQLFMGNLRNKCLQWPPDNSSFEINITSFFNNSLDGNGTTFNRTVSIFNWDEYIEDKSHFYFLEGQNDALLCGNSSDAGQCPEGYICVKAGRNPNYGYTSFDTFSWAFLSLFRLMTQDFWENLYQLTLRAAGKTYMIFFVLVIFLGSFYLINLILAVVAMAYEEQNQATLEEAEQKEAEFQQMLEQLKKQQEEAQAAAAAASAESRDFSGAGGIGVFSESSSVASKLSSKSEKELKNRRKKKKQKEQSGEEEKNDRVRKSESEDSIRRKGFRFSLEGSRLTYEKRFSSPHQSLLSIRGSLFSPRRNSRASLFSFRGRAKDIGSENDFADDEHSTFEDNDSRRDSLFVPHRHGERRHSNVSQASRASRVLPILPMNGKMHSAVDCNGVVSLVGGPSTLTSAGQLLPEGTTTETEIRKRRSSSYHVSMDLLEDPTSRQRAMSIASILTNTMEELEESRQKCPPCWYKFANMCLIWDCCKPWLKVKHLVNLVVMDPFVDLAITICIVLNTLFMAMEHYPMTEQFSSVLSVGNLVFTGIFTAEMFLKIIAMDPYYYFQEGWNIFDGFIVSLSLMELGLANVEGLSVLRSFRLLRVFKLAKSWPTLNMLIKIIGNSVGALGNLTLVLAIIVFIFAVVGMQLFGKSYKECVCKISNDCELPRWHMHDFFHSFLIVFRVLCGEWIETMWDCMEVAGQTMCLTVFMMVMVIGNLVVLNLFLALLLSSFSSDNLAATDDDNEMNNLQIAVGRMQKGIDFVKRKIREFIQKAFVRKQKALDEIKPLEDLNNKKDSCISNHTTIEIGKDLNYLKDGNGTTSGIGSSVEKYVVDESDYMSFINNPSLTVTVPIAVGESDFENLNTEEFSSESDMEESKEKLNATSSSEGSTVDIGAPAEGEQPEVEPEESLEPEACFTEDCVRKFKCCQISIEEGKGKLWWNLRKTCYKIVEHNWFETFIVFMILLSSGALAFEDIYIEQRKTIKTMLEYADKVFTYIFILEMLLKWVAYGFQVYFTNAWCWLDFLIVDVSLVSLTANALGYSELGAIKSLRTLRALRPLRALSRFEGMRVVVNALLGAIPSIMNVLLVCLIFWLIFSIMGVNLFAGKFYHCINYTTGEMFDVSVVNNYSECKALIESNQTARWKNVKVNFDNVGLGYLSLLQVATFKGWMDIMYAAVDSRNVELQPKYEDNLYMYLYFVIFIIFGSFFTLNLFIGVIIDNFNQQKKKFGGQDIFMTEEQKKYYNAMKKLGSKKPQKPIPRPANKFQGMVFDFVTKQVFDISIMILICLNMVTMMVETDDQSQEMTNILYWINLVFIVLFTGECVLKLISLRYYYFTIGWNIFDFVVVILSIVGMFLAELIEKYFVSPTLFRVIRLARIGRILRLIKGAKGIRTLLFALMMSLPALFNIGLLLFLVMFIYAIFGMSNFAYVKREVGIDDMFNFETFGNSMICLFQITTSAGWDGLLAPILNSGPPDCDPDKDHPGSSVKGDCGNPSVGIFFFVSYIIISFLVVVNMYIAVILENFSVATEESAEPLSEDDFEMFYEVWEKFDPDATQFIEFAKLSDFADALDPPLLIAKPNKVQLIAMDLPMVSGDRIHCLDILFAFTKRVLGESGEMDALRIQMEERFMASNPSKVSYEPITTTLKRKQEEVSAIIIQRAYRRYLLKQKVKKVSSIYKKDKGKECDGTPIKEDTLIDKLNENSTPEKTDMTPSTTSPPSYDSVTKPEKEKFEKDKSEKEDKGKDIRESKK
Excerpt: as §1, §2, §3, §4, §5

[1] = 10 Hz frequency-dependent block (TP11), read-out: IC50 Nav1.6 10 Hz block
[2] = Inactivated state block (TP12), read-out: IC50 Nav1.6 Inactivated state block
[3] = Tonic block (TP1), read-out: IC50 Nav1.6 Tonic block
[4] = 10 Hz frequency-dependent block (TP11), read-out: IC50 Nav1.2 10 Hz block
[5] = Inactivated state block (TP12), read-out: IC50 Nav1.2 Inactivated state block
[6] = Tonic block (TP1), read-out: IC50 Nav1.2 Tonic block

hNav1.6, sequence (Q9UQD0 whole entry): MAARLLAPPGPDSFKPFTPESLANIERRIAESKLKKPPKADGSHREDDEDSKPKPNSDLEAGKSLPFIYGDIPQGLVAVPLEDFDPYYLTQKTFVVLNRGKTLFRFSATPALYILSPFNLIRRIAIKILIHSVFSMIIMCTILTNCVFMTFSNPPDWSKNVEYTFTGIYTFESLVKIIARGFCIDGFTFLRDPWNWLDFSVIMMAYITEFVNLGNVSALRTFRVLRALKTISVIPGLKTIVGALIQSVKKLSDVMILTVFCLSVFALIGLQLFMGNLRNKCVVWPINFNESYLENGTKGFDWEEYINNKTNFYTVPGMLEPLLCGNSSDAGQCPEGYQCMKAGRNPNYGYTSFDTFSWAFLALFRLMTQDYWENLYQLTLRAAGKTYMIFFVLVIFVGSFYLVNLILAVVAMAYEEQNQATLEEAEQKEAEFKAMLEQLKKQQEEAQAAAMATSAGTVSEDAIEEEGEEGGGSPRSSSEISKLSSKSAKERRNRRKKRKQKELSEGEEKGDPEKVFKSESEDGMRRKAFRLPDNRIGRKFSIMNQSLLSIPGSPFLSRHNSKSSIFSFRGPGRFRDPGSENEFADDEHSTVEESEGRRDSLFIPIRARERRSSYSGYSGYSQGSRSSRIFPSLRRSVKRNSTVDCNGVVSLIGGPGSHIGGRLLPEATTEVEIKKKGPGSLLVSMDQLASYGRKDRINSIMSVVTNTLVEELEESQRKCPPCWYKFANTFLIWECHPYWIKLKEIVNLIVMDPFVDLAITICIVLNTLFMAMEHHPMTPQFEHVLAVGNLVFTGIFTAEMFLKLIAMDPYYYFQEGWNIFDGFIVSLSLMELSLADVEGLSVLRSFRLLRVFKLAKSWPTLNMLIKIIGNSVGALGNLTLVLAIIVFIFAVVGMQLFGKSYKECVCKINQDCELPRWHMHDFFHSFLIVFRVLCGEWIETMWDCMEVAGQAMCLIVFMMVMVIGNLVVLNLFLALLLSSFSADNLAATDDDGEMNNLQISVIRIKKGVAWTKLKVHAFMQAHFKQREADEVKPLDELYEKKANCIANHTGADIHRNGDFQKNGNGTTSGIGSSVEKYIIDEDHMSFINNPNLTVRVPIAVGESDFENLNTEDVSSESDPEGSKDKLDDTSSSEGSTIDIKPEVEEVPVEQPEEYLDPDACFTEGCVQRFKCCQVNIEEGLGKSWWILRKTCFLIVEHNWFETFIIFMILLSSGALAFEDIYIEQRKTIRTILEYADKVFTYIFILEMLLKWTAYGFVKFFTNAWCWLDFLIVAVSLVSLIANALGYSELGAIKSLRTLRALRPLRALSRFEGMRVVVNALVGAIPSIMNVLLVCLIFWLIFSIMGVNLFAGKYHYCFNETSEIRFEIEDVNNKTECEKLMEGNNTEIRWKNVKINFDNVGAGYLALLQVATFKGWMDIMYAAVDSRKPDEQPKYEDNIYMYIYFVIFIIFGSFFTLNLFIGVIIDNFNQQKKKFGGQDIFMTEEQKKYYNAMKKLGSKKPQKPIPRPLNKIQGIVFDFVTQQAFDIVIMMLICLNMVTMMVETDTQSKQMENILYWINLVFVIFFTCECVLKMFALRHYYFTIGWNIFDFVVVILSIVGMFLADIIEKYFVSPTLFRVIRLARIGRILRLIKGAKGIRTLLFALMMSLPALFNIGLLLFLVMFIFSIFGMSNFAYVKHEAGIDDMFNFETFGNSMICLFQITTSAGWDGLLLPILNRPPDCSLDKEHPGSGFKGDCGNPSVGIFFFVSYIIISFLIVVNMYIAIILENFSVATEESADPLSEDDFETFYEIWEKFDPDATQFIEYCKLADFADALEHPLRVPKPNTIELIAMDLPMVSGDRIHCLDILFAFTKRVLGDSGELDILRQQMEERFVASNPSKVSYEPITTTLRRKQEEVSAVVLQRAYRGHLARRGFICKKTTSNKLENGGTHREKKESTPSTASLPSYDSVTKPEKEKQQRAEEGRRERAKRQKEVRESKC

| Structure (SMILES) | IC50 (hNav1.6; [1]) | IC50 (hNav1.6; [2]) | IC50 (hNav1.6; [3]) | IC50 (hNav1.2; [4]) | IC50 (hNav1.2; [5]) | IC50 (hNav1.2; [6]) |
| --- | --- | --- | --- | --- | --- | --- |
| Cc1cccc(C)c1OCCCNCc1ccc(C(F)(F)F)cc1 [Compound 526] | 4.7 µM | 2.3 µM | 6.9 µM | 9.5 µM | 3.5 µM | > 10 µM |
| Cc1cccc(C)c1OCCCNCc1ccccc1-c1ccccc1 [Compound 536, N-(Biphenyl-2-ylmethyl)-3-(2,6-dimethylphenoxy)propan-1-amine] | 3.7 µM | 1.3 µM | 21.4 µM | 1.7 µM | 0.4 µM | > 30 µM |
| Cc1cccc(C)c1OCCCNCc1noc(C(C)C)n1 [Compound 538, 3-(2,6-Dimethylphenoxy)-N-((5-isopropyl-1,2,4-oxadiazol-3-yl)methyl)propan-1-amine] | > 10 µM | > 10 µM | > 10 µM | > 10 µM | ~10.2 µM | > 10 µM |
| Cc1cccc(C)c1OCCCNCc1ccc(S(N)(=O)=O)cc1 [Compound 532, 4-((3-(2,6-Dimethylphenoxy)propylamino)methyl)benzenesulfonamide] | > 10 µM | 8.5 µM | > 10 µM | > 10 µM | 6.1 µM | > 10 µM |
| CC(=O)Nc1ccc(CNCCCOc2c(C)cccc2C)cc1 [Compound 542, N-(4-((3-(2,6-Dimethylphenoxy)propylamino)methyl)phenyl)acetamide] | > 10 µM | 7.1 µM | > 10 µM | > 10 µM | 5 µM | > 10 µM |

Now from value to molecule:

| IC50 (hNav1.6; [1]) | IC50 (hNav1.6; [2]) | IC50 (hNav1.6; [3]) | IC50 (hNav1.2; [4]) | IC50 (hNav1.2; [5]) | IC50 (hNav1.2; [6]) | Structure (SMILES) |
| --- | --- | --- | --- | --- | --- | --- |
| 2.9 µM | 2 µM | 5.2 µM | 1.8 µM | 0.5 µM | 3.3 µM | Cc1cccc(C)c1OCCCNCc1ccccc1 [Compound 518, N-Benzyl-3-(2,6-dimethylphenoxy)propan-1-amine] |
| 12.4 µM | 4.7 µM | 31.7 µM | 13.1 µM | 4.8 µM | 34.4 µM | Cc1cccc(C)c1OCCCNCc1cccnc1 [Compound 528, 3-(2,6-Dimethylphenoxy)-N-(pyridin-3-ylmethyl)propan-1-amine] |
| 7.6 µM | 2 µM | > 10 µM | ~10 µM | 4.2 µM | > 10 µM | Cc1cccc(C)c1OCCCNCc1ccccn1 [Compound 523, 3-(2,6-Dimethylphenoxy)-N-(pyridin-2-ylmethyl)propan-1-amine] |
| > 10 µM | > 10 µM | > 10 µM | > 10 µM | > 10 µM | > 10 µM | Cc1n[nH]c(C)c1OCCCNC(c1ccccn1)c1ccccn1 [Compound 642, 3-(3,5-Dimethyl-1H-pyrazol-4-yloxy)-N-(dipyridin-2-ylmethyl)propan-1-amine] |
| > 10 µM | > 10 µM | > 10 µM | > 10 µM | > 10 µM | > 10 µM | Cc1n[nH]c(C)c1OCCCNCc1cccc(-c2cncnc2)c1 [Compound 643, 3-(3,5-Dimethyl-1H-pyrazol-4-yloxy)-N-(3-(pyrimidin-5-yl)benzyl)propan-1-amine] |
| > 1000 µM | > 1000 µM | > 1000 µM | 20.7 µM | 7 µM | 66.5 µM | Cc1cccc(C)c1OCCCNCc1cccc(-c2ccccc2)c1 [Compound 535, N-(Biphenyl-3-ylmethyl)-3-(2,6-dimethylphenoxy)propan-1-amine] |
| 2 µM | 1.1 µM | 5.6 µM | 4.9 µM | 2.1 µM | ~10.1 µM | Cc1cccc(C)c1OCCCNCc1ccccc1F [Compound 551, 3-(2,6-Dimethylphenoxy)-N-(2-fluorobenzyl)propan-1-amine] |
| > 1000 µM | > 1000 µM | > 1000 µM | > 1000 µM | > 1000 µM | > 1000 µM | Cc1cccc(C)c1OCCCNCc1ccc(-c2ccccc2)cc1 [Compound 522, N-(Biphenyl-4-ylmethyl)-3-(2,6-dimethylphenoxy)propan-1-amine] |
